Test results taken from publication PMC4579598 (2015).

Experiments:
[1] = test system: myc2345 (DNA, G4) TGAGGGTGGGGAGGGTGGGGAA; assay: displacement of DAOTA-M2 followed by fluorescence lifetime (FLIM); conditions: 100 mM K+; 10 mM lithium cacodylate pH 7.3; DAOTA-M2 displaced, duplex DNA present
[2] = test system: PDGF-A (DNA, G4) GGAGGCGGGGGGGGGGGGGCGGGGGCGGGGGCGGGGGAGGGGCGCGGC; assay: fluorescence emission titration; conditions: 100 mM K+ (DNA annealed in 25 mM K+); 10 mM lithium cacodylate pH 7.3, 2 μM compound; per binding motif; log Ka 5.7-6.1 over all DNAs
[3] = test system: ss17 (DNA, single strand) CCAGTTCGTAGTAACCC; assay: fluorescence emission titration; conditions: 100 mM K+; 10 mM lithium cacodylate pH 7.3, 2 μM compound; per five-base motif; log Ka 5.7-6.1 over all DNAs
[4] = test system: ds17 (DNA, duplex) CCAGTTCGTAGTAACCC/GGGTTACTACGAACTGG; assay: fluorescence emission titration; conditions: 100 mM K+; 10 mM lithium cacodylate pH 7.3, 2 μM compound; per binding motif; log Ka 5.7-6.1 over all DNAs
[5] = test system: TBA (DNA, G4) GGTTGGTGTGGTTGG; assay: fluorescence emission titration; conditions: 100 mM K+; 10 mM lithium cacodylate pH 7.3, 2 μM compound; log Ka 5.7-6.1 over all DNAs
[6] = test system: myc2345 (DNA, G4) TGAGGGTGGGGAGGGTGGGGAA; assay: fluorescence emission titration; conditions: 100 mM K+; 10 mM lithium cacodylate pH 7.3, 2 μM compound; per binding motif; log Ka 5.7-6.1 over all DNAs

Row | binding [1] | Ka [2] | binding [3] | binding [4] | binding [5] | binding [6] | Compound
1 | yes |  |  |  |  |  | NCCOc1cc(C(=O)Nc2cc(OCCN)c3ccccc3n2)nc(C(=O)Nc2cc(OCCN)c3ccccc3n2)c1
2 |  | 761000 M⁻¹ | yes | yes | yes | yes | c1cc2oc3cccc4c3[c+]3c2c(c1)n(CCN1CCOCC1)c1cccc(c13)n4CCN1CCOCC1
